Legend:
Type in all cases: functional
[1] = tested on: NCI-H23; experiment: Antiproliferative activity against human NCI-H23 cells at 10 uM by SRB assay
[2] = tested on: ACHN; experiment: Antiproliferative activity against human ACHN cells at 0.3 uM by SRB assay
[3] = tested on: MDA-MB-231; experiment: Antiproliferative activity against human MDA-MB-231 cells at 1 uM by SRB assay
[4] = tested on: PC-3; experiment: Antiproliferative activity against human PC3 cells at 3 uM by SRB assay
[5] = tested on: ACHN; experiment: Antiproliferative activity against human ACHN cells at 1 uM by SRB assay
[6] = tested on: ACHN; experiment: Antiproliferative activity against human ACHN cells at 0.1 uM by SRB assay
[7] = tested on: NUGC-3; experiment: Antiproliferative activity against human NUGC3 cells at 3 uM by SRB assay
[8] = tested on: HCT-15; experiment: Antiproliferative activity against human HCT15 cells at 1 uM by SRB assay
[9] = tested on: PC-3; experiment: Antiproliferative activity against human PC3 cells by SRB assay
[10] = tested on: PC-3; experiment: Antiproliferative activity against human PC3 cells at 10 uM by SRB assay
[11] = tested on: NUGC-3; experiment: Antiproliferative activity against human NUGC3 cells at 0.3 uM by SRB assay
[12] = tested on: MDA-MB-231; experiment: Antiproliferative activity against human MDA-MB-231 cells at 3 uM by SRB assay
[13] = tested on: HCT-15; experiment: Antiproliferative activity against human HCT15 cells at 3 uM by SRB assay
[14] = tested on: HCT-15; experiment: Antiproliferative activity against human HCT15 cells at 10 uM by SRB assay
[15] = tested on: MDA-MB-231; experiment: Antiproliferative activity against human MDA-MB-231 cells at 10 uM by SRB assay
[16] = tested on: ACHN; experiment: Antiproliferative activity against human ACHN cells at 3 uM by SRB assay
[17] = tested on: PC-3; experiment: Antiproliferative activity against human PC3 cells at 0.1 uM by SRB assay
[18] = tested on: NCI-H23; experiment: Antiproliferative activity against human NCI-H23 cells at 1 uM by SRB assay
[19] = tested on: NUGC-3; experiment: Antiproliferative activity against human NUGC3 cells at 10 uM by SRB assay
[20] = tested on: NCI-H23; experiment: Antiproliferative activity against human NCI-H23 cells at 0.3 uM by SRB assay
[21] = tested on: MDA-MB-231; experiment: Antiproliferative activity against human MDA-MB-231 cells at 0.1 uM by SRB assay
[22] = tested on: NCI-H23; experiment: Antiproliferative activity against human NCI-H23 cells by SRB assay
[23] = tested on: HCT-15; experiment: Antiproliferative activity against human HCT15 cells at 0.1 uM by SRB assay
[24] = tested on: NUGC-3; experiment: Antiproliferative activity against human NUGC3 cells at 0.1 uM by SRB assay
[25] = tested on: MDA-MB-231; experiment: Antiproliferative activity against human MDA-MB-231 cells by SRB assay
[26] = tested on: ACHN; experiment: Antiproliferative activity against human ACHN cells at 10 uM by SRB assay
[27] = tested on: HCT-15; experiment: Antiproliferative activity against human HCT15 cells at 0.3 uM by SRB assay
[28] = tested on: ACHN; experiment: Antiproliferative activity against human ACHN cells by SRB assay
[29] = tested on: NUGC-3; experiment: Antiproliferative activity against human NUGC3 cells at 1 uM by SRB assay
[30] = tested on: PC-3; experiment: Antiproliferative activity against human PC3 cells at 0.3 uM by SRB assay
[31] = tested on: NCI-H23; experiment: Antiproliferative activity against human NCI-H23 cells at 0.1 uM by SRB assay
[32] = tested on: NUGC-3; experiment: Antiproliferative activity against human NUGC3 cells by SRB assay
[33] = tested on: HCT-15; experiment: Antiproliferative activity against human HCT15 cells by SRB assay
[34] = tested on: PC-3; experiment: Antiproliferative activity against human PC3 cells at 1 uM by SRB assay
[35] = tested on: MDA-MB-231; experiment: Antiproliferative activity against human MDA-MB-231 cells at 0.3 uM by SRB assay
[36] = tested on: NCI-H23; experiment: Antiproliferative activity against human NCI-H23 cells at 3 uM by SRB assay

Row | GI50 [9] | Structure (SMILES) | growth, % of control at 10 µM [1] | growth, % of control at 0.3 µM [2] | growth, % of control at 1 µM [3] | growth, % of control at 3 µM [4] | growth, % of control at 1 µM [5] | growth, % of control at 0.1 µM [6] | growth, % of control at 3 µM [7] | growth, % of control at 1 µM [8] | growth, % of control at 10 µM [10] | growth, % of control at 0.3 µM [11] | growth, % of control at 3 µM [12] | growth, % of control at 3 µM [13] | growth, % of control at 10 µM [14] | growth, % of control at 10 µM [15] | growth, % of control at 3 µM [16] | growth, % of control at 0.1 µM [17] | growth, % of control at 1 µM [18] | growth, % of control at 10 µM [19] | growth, % of control at 0.3 µM [20] | other results
1 | 0.51 µM | CCCCCCCCCCCCCCCCCC(=O)NCC(C)(C)C[N+](C)(C)Cc1ccccc1 | -25.8% | 94% | 86% | -5.4% | 87.4% | 101% | 40.4% | 101% | -38.9% | 101% | 58.9% | 100% | 85.2% | 20.6% | 74.1% | 101% | 70.6% | -11% | 80.7% | growth, % of control at 0.1 µM [21]: 95.5%; GI50 [22]: 0.91 µM; growth, % of control at 0.1 µM [23]: 111%; growth, % of control at 0.1 µM [24]: 96.5%; GI50 [25]: 2.15 µM; growth, % of control at 10 µM [26]: 0.64%; growth, % of control at 0.3 µM [27]: 102%; GI50 [28]: 2.23 µM; growth, % of control at 1 µM [29]: 82%; growth, % of control at 0.3 µM [30]: 95.6%; growth, % of control at 0.1 µM [31]: 93.4%; GI50 [32]: 1.32 µM; GI50 [33]: > 10 µM; growth, % of control at 1 µM [34]: 38.5%; growth, % of control at 0.3 µM [35]: 91.4%; growth, % of control at 3 µM [36]: 34.9%
2 | 0.31 µM | CCCCCCCCCCCCCCCC(=O)N(C)CC[N+](CC)(CC)Cc1ccccc1 | 6.5% | 86.3% | 82.1% | 1.4% | 52.3% | 83.4% | 1.3% | 99.4% | -13.9% | 84.8% | 33.2% | 92.8% | 71.1% | -4.4% | 28% | 86.6% | 75.4% | -9.3% | 112% | growth, % of control at 0.1 µM [21]: 105%; GI50 [22]: 1.22 µM; growth, % of control at 0.1 µM [23]: 100%; growth, % of control at 0.1 µM [24]: 92.7%; GI50 [25]: 1.13 µM; growth, % of control at 10 µM [26]: 1.6%; growth, % of control at 0.3 µM [27]: 101%; GI50 [28]: 0.6 µM; growth, % of control at 1 µM [29]: 31.4%; growth, % of control at 0.3 µM [30]: 80.4%; growth, % of control at 0.1 µM [31]: 113%; GI50 [32]: 0.36 µM; GI50 [33]: > 10 µM; growth, % of control at 1 µM [34]: 25.8%; growth, % of control at 0.3 µM [35]: 96.5%; growth, % of control at 3 µM [36]: 39.7%
3 | 0.31 µM | C=CC[N+](C)(C)CCCN(C)C(=O)CCCCCCCCCCCCC | -7.17% | 96.8% | 86.8% | -10.8% | 96% | 104% | 4.58% | 92.8% | -20.4% | 82.8% | 48.3% | 79.4% | 53.2% | 15.5% | 67% | 93.3% | 55.6% | -1.98% | 85.7% | growth, % of control at 0.1 µM [21]: 99.8%; GI50 [22]: 0.46 µM; growth, % of control at 0.1 µM [23]: 90.4%; growth, % of control at 0.1 µM [24]: 80.1%; GI50 [25]: 1.35 µM; growth, % of control at 10 µM [26]: 14.3%; growth, % of control at 0.3 µM [27]: 82.4%; GI50 [28]: 1.89 µM; growth, % of control at 1 µM [29]: 32.1%; growth, % of control at 0.3 µM [30]: 82.3%; growth, % of control at 0.1 µM [31]: 88.5%; GI50 [32]: 0.28 µM; GI50 [33]: > 10 µM; growth, % of control at 1 µM [34]: 35.4%; growth, % of control at 0.3 µM [35]: 98.9%; growth, % of control at 3 µM [36]: 12.2%
